Results taken from US20230218639A1, “USE OF OXYGENATED CHOLESTEROL SULFATES FOR TREATING NEUROLOGICAL CONDITIONS, NEURODEGENERATIVE DISEASES, AND ADDICTION” (Durect Corporation, priority 2020, published 2023).

Experiments:
DNMT3b = DNMT3b (Homo sapiens, UniProt Q9UBC3); assay: DNMT3b activity assay (Lambda DNA substrate, ^3H-SAM); assay type: biochemical
Description: (§1) For the DNMT1 activity assay, the substrate solution, 0.001 mg/ml Poly(dI-dC):Poly(dI-dC) in 50 mM Tris-HCl, pH 7.5, 50 mM NaCl, 5 mM EDTA, 5 mM DTT, 1 mM PMSF, 5% glycerol, 0.01% Brij35, 1% DMSO was used. For the DNMT3a/3b activity assay, 0.0075 mg/ml Lambda DNA in 50 mM Tris-HCl, pH 7.5, 50 mM NaCl, 5 mM EDTA, 5 mM DTT, 1 mM PMSF, 5% glycerol, 1% DMSO, was used. The indicated DNMT1, DNMT3a, or DNMT3b was added to the appropriate substrate solution and gently mixed. […] The mixtures were first incubated for 15 min, then ^3H-SAM was added to the reaction mixture to initiate the reaction, and the mixture was incubated for 60 min at 30° C. Following incubation, the reaction mixture was finally transferred to filter-paper for detection of radioactivity counts.

DNMT3a = DNMT3a (Homo sapiens, UniProt Q9Y6K1); assay: DNMT3a activity assay (Lambda DNA substrate, ^3H-SAM); assay type: biochemical
Description: as §1

DNMT1 = DNMT1 (Homo sapiens, UniProt P26358); assay: DNMT1 activity assay (Poly(dI-dC) substrate, ^3H-SAM); assay type: biochemical; settings: for EC50: read-out: EC50, activation of DNMT-1
Description: as §1

[1] = Metabolite profiling of plasma and feces, oral dose; assay type: in vivo, rats
Description: Radiolabeled components in plasma and feces extracts were profiled and identified using radio-high performance liquid chromatography (HPLC) and high performance liquid chromatography/mass spectrometry (HPLC/MS) methods.
Plasma pools were prepared for Group 1 (75 mg/kg, [^14C]-25HC3S) samples collected at 2, 4, and 6 hours post-dose. […] One metabolite M29 was identified as 25-hydroxycholesterol with 37% ROI and a concentration of 1233 ng-equiv./g.
Feces pools were prepared for Group 2 (75 mg/kg, [^14C]-25HC3S) samples collected from 0 to 24, 24 to 48, 48 to 72, 72 to 96, 96 to 120, 120 to 144, and 144 to 168 hours post-dose. A total of eleven metabolites were identified. None of the metabolites were present at ≥5% of dose. Metabolites present at 2-5% of dose were M1 (4.5% of total dose and 1%-69% ROI), M3 (4.6% of total dose and 1%-44% ROI), M4 (2.0% of total dose and 0%-10% ROI), M8 (3.1% of total dose and 1%-46% ROI), […], and M30 (3.3% of total dose and 0%-5% ROI).

[2] = Metabolite profiling of plasma, urine, feces, intravenous dose; assay type: in vivo, Sprague Dawley rats; settings: intravenous 10 mg/kg
Description: Nine male Sprague Dawley rats (Group 1) were designated for the pharmacokinetic phase, 3 male Sprague Dawley rats (Group 2) for the excretion mass balance phase, and 7 male Sprague Dawley rats (Group 3) and 9 male Long Evans rats (Group 4) for the tissue distribution phase. All animals received a single intravenous dose of [^14C]-25HC3S at 10 mg/kg and a target radioactivity of 225 μCi/kg. Blood samples were collected from all Group 1 animals at approximately 0.083, 0.25, 0.5, 1, 2, 4, 8, 12, 24, 48, and 72 hours post-dose. Urine and feces were collected from all Group 2 animals periodically through 168 hours post-dose. […] Following blood collection, animals were euthanized by CO2 inhalation and carcasses frozen in a dry ice/hexane bath for processing by quantitative whole body autoradiography. Whole blood, plasma, urine, feces, cage rinse, and cage wash were analyzed for total radioactivity by liquid scintillation counting.

DNMT1/3a/3b = assay: Enzyme kinetic study, DNMT1/3a/3b activities overall; assay type: biochemical; settings: for effect on enzymatic activities: controls
Description: as §1

[3] = Sprague Dawley, rat, in vivo, po, 75 mg/kg

Chain of DNMT1 (P26358 whole entry): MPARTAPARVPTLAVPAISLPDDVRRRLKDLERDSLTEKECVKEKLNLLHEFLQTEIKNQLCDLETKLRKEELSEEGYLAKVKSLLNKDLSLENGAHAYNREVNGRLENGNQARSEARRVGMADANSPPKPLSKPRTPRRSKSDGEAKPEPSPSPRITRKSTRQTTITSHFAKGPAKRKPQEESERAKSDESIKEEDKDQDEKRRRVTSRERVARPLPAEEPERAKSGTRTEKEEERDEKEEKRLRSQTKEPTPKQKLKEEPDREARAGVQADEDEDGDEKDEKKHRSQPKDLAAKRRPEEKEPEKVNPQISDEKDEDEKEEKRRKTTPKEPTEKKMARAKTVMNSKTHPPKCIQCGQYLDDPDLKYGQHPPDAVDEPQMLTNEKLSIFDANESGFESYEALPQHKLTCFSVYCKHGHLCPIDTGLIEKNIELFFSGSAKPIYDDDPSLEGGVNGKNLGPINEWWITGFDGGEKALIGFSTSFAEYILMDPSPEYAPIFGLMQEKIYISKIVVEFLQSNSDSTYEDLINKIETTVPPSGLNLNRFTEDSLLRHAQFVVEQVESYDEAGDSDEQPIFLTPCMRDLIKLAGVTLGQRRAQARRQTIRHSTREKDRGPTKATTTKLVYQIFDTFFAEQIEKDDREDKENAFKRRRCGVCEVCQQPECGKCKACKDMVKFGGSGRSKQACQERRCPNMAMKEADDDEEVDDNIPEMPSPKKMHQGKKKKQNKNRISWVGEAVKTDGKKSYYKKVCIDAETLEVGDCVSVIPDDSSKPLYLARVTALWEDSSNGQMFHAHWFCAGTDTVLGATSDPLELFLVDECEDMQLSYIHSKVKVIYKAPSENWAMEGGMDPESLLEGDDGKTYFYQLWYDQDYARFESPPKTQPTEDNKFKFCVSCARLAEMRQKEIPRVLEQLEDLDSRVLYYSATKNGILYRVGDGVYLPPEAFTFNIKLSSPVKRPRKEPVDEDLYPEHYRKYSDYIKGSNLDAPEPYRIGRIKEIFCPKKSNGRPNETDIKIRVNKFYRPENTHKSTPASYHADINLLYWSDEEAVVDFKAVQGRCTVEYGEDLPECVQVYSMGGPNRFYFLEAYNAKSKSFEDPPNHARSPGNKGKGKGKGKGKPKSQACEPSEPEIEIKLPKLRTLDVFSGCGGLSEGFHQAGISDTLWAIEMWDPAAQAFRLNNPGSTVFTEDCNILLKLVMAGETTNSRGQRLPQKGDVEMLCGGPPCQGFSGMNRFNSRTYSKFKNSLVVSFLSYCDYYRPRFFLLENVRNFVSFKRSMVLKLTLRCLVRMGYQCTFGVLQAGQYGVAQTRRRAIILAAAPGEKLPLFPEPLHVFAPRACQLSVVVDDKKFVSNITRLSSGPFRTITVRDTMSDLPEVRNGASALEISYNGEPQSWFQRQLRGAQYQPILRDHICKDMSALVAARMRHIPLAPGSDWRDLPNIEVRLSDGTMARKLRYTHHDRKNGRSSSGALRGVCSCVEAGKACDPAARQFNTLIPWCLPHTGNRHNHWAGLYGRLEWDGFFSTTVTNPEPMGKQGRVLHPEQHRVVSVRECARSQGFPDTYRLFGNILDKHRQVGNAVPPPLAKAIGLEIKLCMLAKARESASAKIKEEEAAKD
Chain of DNMT3a (Q9Y6K1 whole entry, looked up): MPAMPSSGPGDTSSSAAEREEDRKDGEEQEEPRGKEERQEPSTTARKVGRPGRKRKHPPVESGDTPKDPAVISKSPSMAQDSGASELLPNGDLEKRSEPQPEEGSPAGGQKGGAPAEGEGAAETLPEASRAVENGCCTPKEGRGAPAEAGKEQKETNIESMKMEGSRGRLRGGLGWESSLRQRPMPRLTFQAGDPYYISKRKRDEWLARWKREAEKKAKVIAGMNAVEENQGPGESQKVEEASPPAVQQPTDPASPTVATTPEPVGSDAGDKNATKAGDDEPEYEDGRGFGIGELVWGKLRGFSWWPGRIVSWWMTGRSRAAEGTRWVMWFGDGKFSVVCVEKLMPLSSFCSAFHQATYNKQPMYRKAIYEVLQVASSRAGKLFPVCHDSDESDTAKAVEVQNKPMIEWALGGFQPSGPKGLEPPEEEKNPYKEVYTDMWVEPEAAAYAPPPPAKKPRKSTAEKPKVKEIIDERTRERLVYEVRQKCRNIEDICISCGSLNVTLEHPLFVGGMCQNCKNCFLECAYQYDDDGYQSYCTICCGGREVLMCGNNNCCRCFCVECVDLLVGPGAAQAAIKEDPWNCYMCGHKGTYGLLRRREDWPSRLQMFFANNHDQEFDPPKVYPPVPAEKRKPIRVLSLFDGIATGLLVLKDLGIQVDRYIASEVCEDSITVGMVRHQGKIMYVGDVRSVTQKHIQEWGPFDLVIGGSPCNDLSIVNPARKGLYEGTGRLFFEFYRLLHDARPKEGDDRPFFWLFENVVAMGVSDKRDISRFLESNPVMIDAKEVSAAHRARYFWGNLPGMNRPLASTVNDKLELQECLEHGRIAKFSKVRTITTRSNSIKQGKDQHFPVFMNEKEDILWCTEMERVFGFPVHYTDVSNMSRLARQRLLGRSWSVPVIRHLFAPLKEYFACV

Compound: CC(CO)CCC[C@@H](C)[C@H]1CC[C@H]2[C@@H]3CC=C4C[C@@H](OS(=O)(=O)O)CC[C@]4(C)[C@H]3CC[C@]12C (stereo partly drawn) [27HC3S, 5-cholesten-3β, 27-diol 3-sulfate]
- IC50 (DNMT3b): 2.68 µM
- IC50 (DNMT3a): 8.88 µM
- IC50 (DNMT1): 3.58 µM

Compound: C[C@H](CCCC(C)(C)O)[C@H]1CC[C@H]2[C@@H]3CC=C4C[C@@H](O)CC[C@]4(C)[C@H]3CC[C@]12C [25HC, 25-Hydroxycholesterol, reference compound]
- % of total dose in feces [1, 3]: 1.9 % of total dose
- ROI in feces [1, 3]: 0-2%
- relative observed intensity (ROI) in plasma ([1]; Sprague Dawley, rat, in vivo, po, 75 mg/kg, 2 h): 37%
- activation of DNMT-1 activity (DNMT1): 8 fold
- EC50 (DNMT1): 3.5 µM
- detection in plasma, urine, or feces samples [2]: Neither desmosterol sulfate nor 25-hydroxycholesterol was detected

Compound: C[C@@H](CO)CCC[C@@H](C)[C@H]1CC[C@H]2[C@@H]3CC=C4C[C@@H](O)CC[C@]4(C)[C@H]3CC[C@]12C [27HC, 27-Hydroxycholesterol]
- EC50 (DNMT1): 33 µM
- effect on other enzymes (DNMT1/3a/3b; enzymes other than DNMT-1): no effect

Compound: Nc1ncnc2c1ncn2[C@@H]1O[C@H](CSCC[C@H](N)C(=O)O)[C@@H](O)[C@H]1O [SAH, S-adenosyl homocysteine]
- inhibition at 1 µM (DNMT1; read-out: inhibition of DNMT1 activity): 95%

Compound: CC(C)CCC[C@@H](C)[C@H]1CC[C@H]2[C@@H]3CC=C4C[C@@H](O)CC[C@]4(C)[C@H]3CC[C@]12C [Xol, Cholesterol]
- effect on enzymatic activities (DNMT1/3a/3b): did not significantly affect

Compound: desmosterol sulfate
- presence in plasma or feces samples ([1]; oral 75 mg/kg): not found
- detection in plasma, urine, or feces samples [2]: Neither desmosterol sulfate nor 25-hydroxycholesterol was detected

Compound: CC(C)CCC[C@@H](C)[C@H]1CC[C@H]2[C@@H]3CC=C4C[C@@H](OS(=O)(=O)O)CC[C@]4(C)[C@H]3CC[C@]12C [Xol3S, 5-cholesten-3β-ol, 3-sulfate, reference compound]
- IC50 (DNMT3a): 82 µM
- effect on enzymatic activities (DNMT1/3a/3b): did not significantly affect
